Source: the supplement of paper PMC8882468

Key:
Test in all cases: CTG-3D luminescence at 96 h relative to day-0 seeding control (ratio to day 0); higher = more growth / less cytotoxicity; PDxO 3D drug screen, 96 h, CTG-3D normalised to day-0 seeding control.
[1] = tested on: HCI-023 (organoid from a triple-negative breast cancer xenograft)
[2] = tested on: HCI-011.E2 (organoid from an ER-positive breast cancer xenograft)
[3] = tested on: HCI-002 (organoid from a triple-negative breast cancer xenograft)
[4] = tested on: HCI-010 (organoid from a breast cancer xenograft)
[5] = tested on: HCI-015 (organoid from a triple-negative breast cancer xenograft)

O=C(c1ccc(F)c(F)c1Nc1ccc(I)cc1F)N1CC(O)([C@@H]2CCCCN2)C1 [cobimetinib]
CTG-3D luminescence at 96 h
Settings	12.5 pM	0.00025 µM	0.005 µM	0.1 µM	1 µM	10 µM	100 µM	625 fM
[1], days in culture: 111	1.18	1.25	1.15	1.13	0.75	0.349	-0.00131	1.06
[1], days in culture: 128	1.67	1.44	1.83	1.63	0.769	0.338	-0.000598	1.65
[2], days in culture: 74	2.68	2.66	2.33	1.91	1.8	2.39	0.00131	2.55
[3], days in culture: 62	2.96	2.54	2.87	1.97	1.32	0.777	-0.0104	3.02
[3], days in culture: 82	3.18	3.07	2.39	1.88	1.72	0.519	-0.0137	3.03
[3], days in culture: 91	3.83	3.46	2.9	2.74	1.55	0.722	-0.0112	3.97
[3], days in culture: 191	2.68	2.52	2.54	1.88	1.67	0.799	-0.00417	2.65
[3], days in culture: 209	2.44	2.32	2.11	1.78	1.43	0.589	-0.00565	2.4
[3], days in culture: 227	5.23	5.25	4.79	4.53	2.78	1.04	-0.0104	5.77
[4], days in culture: 52	2.3	2.56	2.39	2.62	2.15	1.67	0.00712	2.57
[4], days in culture: 65	1.64	1.75	1.83	1.67	1.6	1.18	0.00337	1.61
[4], days in culture: 103	3.83	3.96	3.78	3.21	2.72	1.92	0.00125	3.51
[5], days in culture: 172	2.36	1.69	2.13	1.86	1.47	0.989	0.00672	2.48
[5], days in culture: 191	1.86	1.15	1.57	1.17	1.01	0.894	0.0092	1.58
[5], days in culture: 218	1.8	1.31	2.02	1.47	1.39	1.12	0.00858	1.64

[2]
Settings	CTG-3D luminescence at 96 h
12.5 pM	1.67
0.00025 µM	1.69
0.005 µM	1.54
0.1 µM	1.81
1 µM	1.6
10 µM	1.58
100 µM	0.00136
625 fM	1.85

Cc1cc(Nc2ncc(Cl)c(Nc3ccccc3S(=O)(=O)C(C)C)n2)c(OC(C)C)cc1C1CCNCC1 [ceritinib]
CTG-3D luminescence at 96 h
Settings	12.5 pM	0.00025 µM	0.005 µM	0.1 µM	1 µM	10 µM	100 µM	625 fM
[1], days in culture: 111	1.47	1.19	1.18	1.12	0.844	0.00455	-0.00268	1.19
[1], days in culture: 128	1.39	1.2	1.17	1.65	0.92736	0.00417	-0.00332	1.65
[2], days in culture: 74	1.46	1.59	1.77	2.11	1.4	0.0662	-0.00371	1.72
[3], days in culture: 62	2.84	2.62	3.08	2.52	2.11	0.00947	-0.00984	3.15
[3], days in culture: 82	3.23	2.64	2.18	2.46	1.76	0.00838	-0.0057	2.72
[3], days in culture: 91	4.25	3.86	3.52	4.11	3.29	0.00341	-0.0215	4.18
[3], days in culture: 191	2.47	2.8	2.59	2.41	2.23	0.00759	-0.00732	2.72
[3], days in culture: 209	2.4	2.59	2.23	2.14	2.03	0.00677	-0.00747	2.35
[3], days in culture: 227	6.1	6.52	5.45	5.99	4.45	-0.223	-0.242	7.25
[4], days in culture: 52	2.34	2.15	2.46	2.54	2.64	-0.0117	-0.0342	2.26
[4], days in culture: 65	1.61	1.61	1.79	1.94	1.83	0.00782	-0.00536	1.74
[4], days in culture: 103	3.59	3.48	3.35	3.68	3.99	0.0149	-0.0118	3.09
[5], days in culture: 172	1.51	1.75	2.29	1.44	1.69	0.00586	-0.0049	2.67
[5], days in culture: 191	2.15	1.47	1.3	0.962	1.19	0.00448	-0.00428	1.68
[5], days in culture: 218	1.77	1.1	1.51	1.54	1.33	0.00686	-0.00473	1.61

[2]
Settings	CTG-3D luminescence at 96 h
12.5 pM	1.68
0.00025 µM	1.409
0.005 µM	1.37
0.1 µM	1.85
1 µM	1.4
10 µM	0.353
100 µM	-0.00338
625 fM	1.92

C[C@]12CC[C@@H]3c4ccc(O)cc4C[C@@H](CCCCCCCCC[S+]([O-])CCCC(F)(F)C(F)(F)F)[C@H]3[C@@H]1CC[C@@H]2O (stereo not given in full) [fulvestrant]
CTG-3D luminescence at 96 h
Settings	12.5 pM	0.00025 µM	0.005 µM	0.1 µM	1 µM	10 µM	100 µM	625 fM
[1], days in culture: 111	1.5	1.45	1.4	1.27	0.963	1.24	0.911	1.61
[1], days in culture: 128	1.83	1.54	1.6	2.08	1.33	1.56	1.11	1.75
[2], days in culture: 74	2.77	2.62	1.87	2.1	2.1	2.2	2.02	2.9
[3], days in culture: 62	2.97	2.65	3.14	2.57	2.65	3.11	2.61	2.86
[3], days in culture: 82	2.97	2.85	2.4	2.79	2.79	2.61	2.5	2.6
[3], days in culture: 91	3.59	3.05	2.86	3.23	2.74	3.39	2.65	3.54
[3], days in culture: 191	2.73	3.1	2.93	2.95	3.38	2.54	2.67	2.7
[3], days in culture: 209	2.15	2.27	2.46	2.23	2.28	1.83	2.35	2.47
[3], days in culture: 227	5.09	4.65	4.95	5.59	4.77	5	4.58	5.27
[4], days in culture: 52	2.11	2.41	2.26	2.46	2.2	2.56	1.97	2.06
[4], days in culture: 65	1.66	1.76	1.86	1.82	1.96	1.86	1.66	1.76
[4], days in culture: 103	3.27	3.34	3.47	3.46	3.26	3.15	2.99	3.29
[5], days in culture: 172	2.41	1.73	2.32	0.904	2.25	1.34	1.39	3.06
[5], days in culture: 191	1.78	1.35	1.29	1.06	1.56	1.23	1.35	1.56
[5], days in culture: 218	2.19	1.3	2.13	1.72	1.77	2.1	1.76	2.24

[2]
Settings	CTG-3D luminescence at 96 h
12.5 pM	1.73
0.00025 µM	1.6
0.005 µM	1.24
0.1 µM	1.51
1 µM	1.37
10 µM	1.82
100 µM	1.73
625 fM	1.62

CCN(c1cc(C#CCN2CCOCC2)cc(C(=O)NCc2c(C)cc(C)[nH]c2=O)c1C)[C@H]1CC[C@H](N(C)CCOC)CC1
CTG-3D luminescence at 96 h
Settings	12.5 pM	0.00025 µM	0.005 µM	0.1 µM	1 µM	10 µM	100 µM	625 fM
[1], days in culture: 111	1.69	1.38	1.47	1.39	1.14	1.42	0.673	2.1
[1], days in culture: 128	1.51	1.63	1.57	1.99	1.77	2.02	1.09	1.5
[2], days in culture: 74	1.76	2.24	2.14	1.77	1.99	3.31	2.8	1.61
[3], days in culture: 62	3.56	3.06	4.04	3.68	3.25	3.56	3.84	3.54
[3], days in culture: 82	3.83	3.88	2.98	3.77	3.86	3.46	2.82	3.6
[3], days in culture: 91	3.18	2.62	2.38	2.44	2.39	2.58	2.11	3.17
[3], days in culture: 191	3.6	3.27	3.28	3.84	3.37	3.62	3.54	3.51
[3], days in culture: 209	2.93	3.11	2.59	2.63	2.93	2.64	2.79	2.8
[3], days in culture: 227	4.96	4.84	4.63	5.11	4.67	5.77	4.2	5.52
[4], days in culture: 52	1.83	2.5	2.34	2.47	2.48	2.29	1.5	2.03
[4], days in culture: 65	1.6	1.76	1.72	1.49	1.78	1.58	1.05	1.8
[4], days in culture: 103	3.17	3.22	3.07	3.35	3.09	2.84	1.88	2.7
[5], days in culture: 172	2.25	1.77	2.86	1.78	2.2	1.94	1.91	2.23
[5], days in culture: 191	2.6	1.59	1.92	1.44	2.09	1.44	1.13	1.91
[5], days in culture: 218	1.78	1.4	2	1.49	1.67	2.02	0.907	2.07

[2]
Settings	CTG-3D luminescence at 96 h
12.5 pM	1.4
0.00025 µM	1.39
0.005 µM	1.48
0.1 µM	1.74
1 µM	1.74
10 µM	2.09
100 µM	2.03
625 fM	1.63

COc1cc2c(Oc3ccc4[nH]c(C)cc4c3F)ncnc2cc1OCCCN1CCCC1 [cediranib]
CTG-3D luminescence at 96 h
Settings	12.5 pM	0.00025 µM	0.005 µM	0.1 µM	1 µM	10 µM	100 µM	625 fM
[1], days in culture: 111	1.46	1.23	1.27	1.19	0.911	0.0116	-0.00068	1.41
[1], days in culture: 128	1.2	1.51	1.06	1.52	0.96	0.0129	-0.00109	1.48
[2], days in culture: 74	2.32	2.91	2.13	2.41	2.47	2.28	0.0101	2.38
[3], days in culture: 62	2.64	2.39	2.84	2.46	2.52	0.0315	-0.00243	2.92
[3], days in culture: 82	2.68	2.82	2.11	2.52	2.64	0.0265	0.00109	3.14
[3], days in culture: 91	4.4	3.53	3.54	4.14	3.86	0.0389	-0.00511	4.42
[3], days in culture: 191	2.49	2.65	2.32	2.43	2.47	0.0249	0.000973	2.52
[3], days in culture: 209	2.4	2.26	1.95	1.95	1.93	0.0194	-0.000945	2.14
[3], days in culture: 227	5.77	5.66	5.43	6.23	4.99	-0.101	-0.211	5.65
[4], days in culture: 52	1.94	2.48	2.23	2.46	2.24	0.221	-0.0298	2.13
[4], days in culture: 65	1.55	1.65	1.76	1.77	1.42	0.593	-0.00161	1.63
[4], days in culture: 103	3.58	3.43	3.17	3.43	2.66	0.461	-0.00732	3.19
[5], days in culture: 172	2.29	1.76	2.22	1.47	2.43	0.0376	-0.0013	2.51
[5], days in culture: 191	2.09	1.61	1.52	1.16	1.39	0.0236	-0.00165	1.33
[5], days in culture: 218	1.26	1.53	1.55	1.85	1.49	0.0308	-0.00209	1.68

[2]
Settings	CTG-3D luminescence at 96 h
12.5 pM	1.53
0.00025 µM	1.52
0.005 µM	1.45
0.1 µM	2.05
1 µM	1.65
10 µM	1.44
100 µM	0.0243
625 fM	1.97
